Experiment: 6-week randomized, double blind, active and placebo-controlled study in adult subjects with major depressive disorder: body weight
Type: in vivo, Humans
Procedure: A 6-week randomized, double blind, parallel group, active and placebo-controlled study was carried out to assess the efficacy of R228060 in adult subjects with major depressive disorder (MDD). Body weight was monitored throughout the study.

[1] = Paroxetine (N = 117), baseline to endpoint
[2] = Paroxetine group, baseline to endpoint

Fc1ccc([C@@H]2CCNC[C@H]2COc2ccc3c(c2)OCO3)cc1 [Paroxetine, reference compound]
Subjects with weight Decrease ≥7% [1]: 0 n (%)
Subjects with weight Increase <7% [1]: 54 (46.2) n (%)
Subjects with weight Increase ≥7% [1]: 1 (0.9) n (%)
Subjects with weight No change/decrease <7% [1]: 62 (53.0) n (%)
Weight, End point, Mean (Paroxetine group, 6-week study): 83.2 kg
Weight, End point, Median (Paroxetine group, 6-week study): 79.8 kg
Mean weight gain [2]: 0.1 kg
Weight, Change from Baseline, Mean [2]: 0.1 kg
Weight, Change from Baseline, Median [2]: 0.0 kg
Mean change from baseline to endpoint in BMI (paroxetine): 0
